Tested on: MSH3
Experiment: QPCR assay for levels of MSH3 upon compound treatment in HEK293T or AD293 cells (fold-change of MSH3 transcript, EC50 of MSH3 downregulation; total MSH3 exons 13/14, exons 20/21; Table 8)
Type: cell-based
Details: for mrna remaining at 1 µM / mrna remaining at 10 µM: Homo sapiens, fold-change of the MSH3 transcript, normalized to GAPDH; for mrna remaining at 1 µM: 1 μM compound; for mrna remaining at 10 µM: 10 μM compound; for EC50: EC50 of MSH3 downregulation, XtalPi
Outline: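 HEK293T or AD293 cells were treated at 1 μM and […]; RNA-to-cDNA qPCR used TaqMan assays for total MSH3 (exons 13/14, exons 20/21) and poison-exon junctions exon 13/PE14A and exon 20/PE21A. Transcript levels were normalized to GAPDH.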

Row | Compound | mrna remaining at 1 µM [%] | mrna remaining at 10 µM [%] | EC50 [nM]
1 | Cn1cc(-c2cnc3c(c2)C(=O)N(c2ccc(OC4CC(C)(C)NC(C)(C)C4)nn2)C3)c(Cl)n1 [Compound 608, 3-(3-chloro-1-methyl-1H-pyrazol-4-yl)-6-(6-((2,2,6,6-tetramethylpiperidin-4-yl)oxy)pyridazin-3-yl)-6,7-dihydro-5H-pyrrolo[3,4-b]pyridin-5-one] | 86 | 20 | –
2 | Cn1cc(-c2cc3c(cn2)CN(c2ccc(O[C@H]4C[C@]5(C)CC[C@](C)(C4)N5)nn2)C3=O)cn1 [Compound 99, 2-(6-(((1R,3s,5S)-1,5-dimethyl-8-azabicyclo[3.2.1]octan-3-yl)oxy)pyridazin-3-yl)-6-(1-methyl-1H-pyrazol-4-yl)-2,3-dihydro-1H-pyrrolo[3,4-c]pyridin-1-one] | 90 | 86 | –
3 | Cc1nn(C)nc1-c1cnc2c(c1)C(=O)N(c1ccc(N(C)[C@H]3C[C@]4(C)CC[C@](C)(C3)N4)nn1)C2 [Compound 178, 3-(2,5-dimethyl-2H-1,2,3-triazol-4-yl)-6-(6-(((1R,3s,5S)-1,5-dimethyl-8-azabicyclo[3.2.1]octan-3-yl)(methyl)amino)pyridazin-3-yl)-6,7-dihydro-5H-pyrrolo[3,4-b]pyridin-5-one] | 10 | 5 | 425
4 | Cc1nn(C)cc1-c1cc(F)c2c(c1)C(=O)N(c1ccc(O[C@H]3C[C@]4(C)CC[C@](C)(C3)N4)nn1)C2 [Compound 278, 6-(1,3-dimethyl-1H-pyrazol-4-yl)-2-(6-(((1R,3s,5S)-1,5-dimethyl-8-azabicyclo[3.2.1]octan-3-yl)oxy)pyridazin-3-yl)-4-fluoroisoindolin-1-one] | 64 | 14 | –
5 | Cc1nn(C)nc1-c1cc(C#N)c2c(c1)C(=O)N(c1ccc(O[C@H]3C[C@]4(C)CC[C@](C)(C3)N4)nn1)C2 [Compound 681, 6-(2,5-dimethyl-2H-1,2,3-triazol-4-yl)-2-(6-(((1R,3s,5S)-1,5-dimethyl-8-azabicyclo[3.2.1]octan-3-yl)oxy)pyridazin-3-yl)-1-oxoisoindoline-4-carbonitrile] | 76 | 8 | –
6 | Cc1nn(C)nc1-c1cnc2c(c1)C(=O)N(c1ccc(N3CCC4(CCCN4)C3)nn1)C2 (centres unmarked) [Compound 566, 6-(6-(1,7-diazaspiro[4.4]nonan-7-yl)pyridazin-3-yl)-3-(2,5-dimethyl-2H-1,2,3-triazol-4-yl)-6,7-dihydro-5H-pyrrolo[3,4-b]pyridin-5-one] | 133 | 60 | –
7 | Cc1nn(C)nc1-c1cc(F)c2c(c1)C(=O)N(c1ccc(N3CCN4CCC[C@H]4C3)nn1)C2 [Compound 665, (S)-6-(2,5-dimethyl-2H-1,2,3-triazol-4-yl)-4-fluoro-2-(6-(hexahydropyrrolo[1,2-a]pyrazin-2(1H)-yl)pyridazin-3-yl)isoindolin-1-one] | 92 | 32 | –
8 | CN(c1ccc(N2Cc3ncc(-c4nn(C)nc4Cl)nc3C2=O)nn1)[C@H]1C[C@]2(C)CC[C@](C)(C1)N2 [Compound 627, 3-(5-chloro-2-methyl-2H-1,2,3-triazol-4-yl)-6-(6-(((1R,3s,5S)-1,5-dimethyl-8-azabicyclo[3.2.1]octan-3-yl)(methyl)amino)pyridazin-3-yl)-6,7-dihydro-5H-pyrrolo[3,4-b]pyrazin-5-one] | 37 | 11 | –
9 | Cn1nc(Cl)c(-c2cc(F)c3c(c2)C(=O)N(c2ccc(N4CCC(NC5CC5)C4)nn2)C3)n1 (centres unmarked) [Compound 652, 6-(5-chloro-2-methyl-2H-1,2,3-triazol-4-yl)-2-(6-(3-(cyclopropylamino)pyrrolidin-1-yl)pyridazin-3-yl)-4-fluoroisoindolin-1-one] | 103 | 79 | –
10 | CN(c1ccc(N2Cc3c(Cl)cc(-c4nn(C)nc4Cl)cc3C2=O)nn1)[C@H]1C[C@]2(C)CC[C@](C)(C1)N2 [Compound 679, 4-chloro-6-(5-chloro-2-methyl-2H-1,2,3-triazol-4-yl)-2-(6-(((1R,3s,5S)-1,5-dimethyl-8-azabicyclo[3.2.1]octan-3-yl)(methyl)amino)pyridazin-3-yl)isoindolin-1-one] | 95 | 34 | –
11 | Cn1nc(Cl)c(-c2cnc3c(n2)C(=O)N(c2ccc(OC4CC(C)(C)NC5(CCC5)C4)nn2)C3)n1 (centres unmarked) [Compound 628, 3-(5-chloro-2-methyl-2H-1,2,3-triazol-4-yl)-6-(6-((6,6-dimethyl-5-azaspiro[3.5]nonan-8-yl)oxy)pyridazin-3-yl)-6,7-dihydro-5H-pyrrolo[3,4-b]pyrazin-5-one] | 101 | 20 | –
12 | Cn1cc(-c2cnc3c(c2)C(=O)N(c2ccc(O[C@H]4C[C@]5(C)CC[C@](C)(C4)N5)nn2)C3)c(Cl)n1 [Compound 261, 3-(3-chloro-1-methyl-1H-pyrazol-4-yl)-6-(6-(((1R,3s,5S)-1,5-dimethyl-8-azabicyclo[3.2.1]octan-3-yl)oxy)pyridazin-3-yl)-6,7-dihydro-5H-pyrrolo[3,4-b]pyridin-5-one] | 48 | 7 | –
13 | CC[C@]12CC[C@](CC)(C[C@@H](Oc3ccc(N4Cc5cnc(-c6cn(C)nc6C)cc5C4=O)nn3)C1)N2 [Compound 100, 2-(6-(((1R,3s,5S)-1,5-diethyl-8-azabicyclo[3.2.1]octan-3-yl)oxy)pyridazin-3-yl)-6-(1,3-dimethyl-1H-pyrazol-4-yl)-2,3-dihydro-1H-pyrrolo[3,4-c]pyridin-1-one] | 65 | 11 | –
14 | Cn1nc(Cl)c(-c2cnc3c(n2)C(=O)N(c2ccc(O[C@H]4C[C@]5(C)CC[C@](C)(C4)N5)nn2)C3)n1 [Compound 503, 3-(5-chloro-2-methyl-2H-1,2,3-triazol-4-yl)-6-(6-(((1R,3s,5S)-1,5-dimethyl-8-azabicyclo[3.2.1]octan-3-yl)oxy)pyridazin-3-yl)-6,7-dihydro-5H-pyrrolo[3,4-b]pyrazin-5-one] | 70 | 18 | –
15 | Cc1nn(C)nc1-c1cnc2c(n1)C(=O)N(c1ccc(N(C)[C@H]3C[C@]4(C)CC[C@](C)(C3)N4)nn1)C2 [Compound 590, 3-(2,5-dimethyl-2H-1,2,3-triazol-4-yl)-6-(6-(((1R,3s,5S)-1,5-dimethyl-8-azabicyclo[3.2.1]octan-3-yl)(methyl)amino)pyridazin-3-yl)-6,7-dihydro-5H-pyrrolo[3,4-b]pyrazin-5-one] | 24 | 9 | 569
16 | Cc1nn(C)nc1-c1cnc2c(c1)C(=O)N(c1ccc(N3CC4CNC4C3)nn1)C2 (centres unmarked) [Compound 559, 6-(6-(3,6-diazabicyclo[3.2.0]heptan-3-yl)pyridazin-3-yl)-3-(2,5-dimethyl-2H-1,2,3-triazol-4-yl)-6,7-dihydro-5H-pyrrolo[3,4-b]pyridin-5-one] | 93 | 53 | –
17 | COc1cc(-c2nn(C)nc2C)cc2c1CN(c1ccc(N(C)C3CC(C)(C)NC(C)(C)C3)nn1)C2=O [Compound 683, 6-(2,5-dimethyl-2H-1,2,3-triazol-4-yl)-4-methoxy-2-(6-(methyl(2,2,6,6-tetramethylpiperidin-4-yl)amino)pyridazin-3-yl)isoindolin-1-one] | 138 | 26 | –
18 | Cc1nn(C)nc1-c1cc(F)c2c(c1)C(=O)N(c1ccc(N3CCCNCC3)nn1)C2 [Compound 669, 2-(6-(1,4-diazepan-1-yl)pyridazin-3-yl)-6-(2,5-dimethyl-2H-1,2,3-triazol-4-yl)-4-fluoroisoindolin-1-one] | 97 | 42 | –
19 | Cc1nn(C)nc1-c1cc(F)c2c(c1)C(=O)N(c1ccc(N3CCC(N(C)C)CC3)nn1)C2 [Compound 672, 6-(2,5-dimethyl-2H-1,2,3-triazol-4-yl)-2-(6-(4-(dimethylamino)piperidin-1-yl)pyridazin-3-yl)-4-fluoroisoindolin-1-one] | 95 | 74 | –
20 | CN(c1ccc(N2Cc3ncc(-c4cnn(C)n4)cc3C2=O)nn1)C1CC(C)(C)NC(C)(C)C1 [Compound 189, 6-(6-(methyl(2,2,6,6-tetramethylpiperidin-4-yl)amino)pyridazin-3-yl)-3-(2-methyl-2H-1,2,3-triazol-4-yl)-6,7-dihydro-5H-pyrrolo[3,4-b]pyridin-5-one] | 73 | 23 | –
21 | Cc1nn(C)nc1-c1cnc2c(c1)C(=O)N(c1ccc(N3CCN4CCC[C@H]4C3)nn1)C2 [Compound 615, (S)-3-(2,5-dimethyl-2H-1,2,3-triazol-4-yl)-6-(6-(hexahydropyrrolo[1,2-a]pyrazin-2(1H)-yl)pyridazin-3-yl)-6,7-dihydro-5H-pyrrolo[3,4-b]pyridin-5-one] | 81 | 53 | –
22 | Cc1nn(C)nc1-c1cnc2c(c1)C(=O)N(c1ccc(OC3CC(C)(C)NC(C)(C)C3)nn1)C2 [Compound 179, 3-(2,5-dimethyl-2H-1,2,3-triazol-4-yl)-6-(6-((2,2,6,6-tetramethylpiperidin-4-yl)oxy)pyridazin-3-yl)-6,7-dihydro-5H-pyrrolo[3,4-b]pyridin-5-one] | 93 | 8 | –
23 | Cc1nn(C)nc1-c1cc(F)c2c(c1)C(=O)N(c1ccc(N3C[C@@H](C)N[C@@H](C)C3)nn1)C2 [Compound 641, 6-(2,5-dimethyl-2H-1,2,3-triazol-4-yl)-2-(6-((3S,5R)-3,5-dimethylpiperazin-1-yl)pyridazin-3-yl)-4-fluoroisoindolin-1-one] | 96 | 34 | –
24 | Cn1nc(Cl)c(-c2cnc3c(c2)C(=O)N(c2ccc(O[C@@H]4CCC(C)(C)NC(C)(C)C4)nn2)C3)n1 [Compound 605, (R)-3-(5-chloro-2-methyl-2H-1,2,3-triazol-4-yl)-6-(6-((2,2,7,7-tetramethylazepan-4-yl)oxy)pyridazin-3-yl)-6,7-dihydro-5H-pyrrolo[3,4-b]pyridin-5-one] | 82 | 56 | –
